# How the values were obtained:
# SKBR-3 cells [1] = test: Cell cycle distribution by DNA content (FACS); format: cell-based, human; details: SKBR-3, 10 nM Taxol 4 h, 50 nM CNF-101 12–24 h, or reversed order
# Protocol: Cells were trypsinized and analyzed by DNA content (an indication of cell cycle status) by fluorescent staining and FACS analysis. Cell cycle distribution was assayed according to Nusse et al., 1990, Cytometry, 11: 813, with a Becton Dickinson fluorescence-activated cell sorter and analyzed by Cell Cycle Multi-cycle system (Phoenix Flow System, San Diego, Calif.).
# SKBR-3 cells [2] = test: Confocal microscopy of spindle formation and nuclear fragmentation (Hoechst / anti-tubulin dual stain); format: cell-based, human; details: 12 h; for apoptosis / nuclear fragmentation / mitotic spindle formation / mitotic index: SKBr-3, 10 nM Taxol 4 h followed by 50 nM CNF-101 or vehicle
# Protocol: Each experiment was repeated in triplicate.
# The effects of Taxol®, CNF-101 and a combination of the two agents on nuclear fragmentation (a marker of apoptosis) and mitotic spindle formation in SKBR-3 cells were assessed.
# In these sections, 4% of cells were undergoing mitosis and the mitotic cells appeared normal.
smiles,measurement,setting,value
"C=CCNC1=C2C[C@@H](C)C[C@H](OC)[C@H](O)[C@@H](C)/C=C(\C)[C@H](OC(N)=O)[C@@H](OC)/C=C\C=C(/C)C(=O)NC(=CC1=O)C2=O [CNF-101, 17-allylamino 17-demethoxygeldanamycin]",cell cycle distribution,SKBR-3 cells [1],slightly enhanced the G1 fraction
same,apoptosis / nuclear fragmentation,SKBR-3 cells [2],no significant apoptosis
same,mitotic spindle formation / mitotic index,SKBR-3 cells [2],no effect on the spindle
same,cells undergoing mitosis,"SKBR-3 cells [2]; SKBr-3, 50 nM CNF-101 alone (or neither drug)",4%
"CC(=O)O[C@H]1C(=O)[C@@]2(C)[C@H]([C@H](OC(=O)c3ccccc3)[C@]3(O)C[C@H](OC(=O)[C@H](O)[C@@H](NC(=O)c4ccccc4)c4ccccc4)C(C)=C1C3(C)C)[C@]1(OC(C)=O)CO[C@@H]1C[C@@H]2O [Taxol®, paclitaxel]",cell cycle distribution,SKBR-3 cells [1],massive G2-M arrest
same,apoptosis / nuclear fragmentation,SKBR-3 cells [2],little evidence of apoptotic nuclear fragmentation
same,mitotic spindle formation / mitotic index,SKBR-3 cells [2],increase in the mitotic index with all the mitotic cells appearing to have damaged spindles

# Source: patent US7211562B2, “Methods for enhancing the efficacy of cytotoxic agents through the use of HSP90 inhibitors” (Sloan-Kettering Institute for Cancer Research, priority 2000, dated 2007)
